This is an account of results in patent EP3483233A1, “LUBRICANT BASE OIL COMPOSITIONS OF MONO-UNSATURATED DIBASIC ACID ESTERS WITH BRANCHED ALCOHOLS” (ARKEMA FRANCE, priority 2017, dated 2019).

Type in all cases: physicochemical
The nature of data set [1]: Thin film test, volatile losses (500 µm oil film on steel coupon, forced-draft oven, gravimetric). As to conditions: 500 µm thick films at 120°C. An excerpt:
(§1) The exact procedure, used here, has been described in detail by Stoncius, A. et al. in "Volatiles from Thin Film Degradation of Bio-based, Synthetic and Mineral Basestocks", published in Industrial Lubrication & Tribology, 2013, 65 (3) 209-215, 2013, Emerald Group Publishing Edition or by Brazinskiene, D. et al. in "Ester Basestock Vaporisation from Thin Oil Films", published in Lubrication Science, DOI: 10.1002/ls.1372, pp 1-17, 2017, Wiley Edition.
(§2) Briefly, an oil film of 500 µm thickness was coated on steel coupon and heated at given temperature for specific duration in a forced-draft oven. Afterwards, the volatile losses and insoluble residues were measured gravimetrically.
As discussed in the prior-art review, volatility can be successfully evaluated in a thin film test as described by Stoncius, A. et al. in "Volatiles from Thin Film Degradation of Bio-based, Synthetic and Mineral Basestocks" published in Industrial Lubrication & Tribology, 2013, 65 (3) 209-215, Emerald Group Publishing Edition or by Brazinskiene, D. et al. in "Ester Basestock Vaporisation from Thin Oil Films" published in Lubrication Science, DOI: 10.1002/ls.1372, pp 1-17, 2017, Wiley Edition. This thin-film method is much better suited for hydraulic fluid applications than NOACK or other tests, which employ 250°C or similar temperatures, related to engine oil applications. Also, the above method accounts for longer term decomposition reactions due to exposure to metal surfaces and oxidation, which is prevalent in hydraulic applications. Therefore, using the thin-film method short-term vapor losses were measured after 16 hrs and decomposition trends were compared after 36 hrs of testing. Heating temperature of 120°C was selected to compare thin films of α,ω dibasic esters with commercial basestocks. Table 5. Volatile emissions, % w/w from 500 µm thick films of α-ω dibasic esters and commercial basestocks at 120°C

Data set [2] in a line: Kinematic viscosity with capillary Cannon-Fenske viscometers; Viscosity Index calculated per ASTM D2270. Conditions: for Viscosity Index: calculated per ASTM D2270 from viscosities at 40°C and 100°C; for Viscosity, mm^2/s at 40°C: kinematic viscosity at 40°C; for Viscosity, mm^2/s at 100°C: kinematic viscosity at 100°C. How it is done:
Kinematic viscosities at 40°C and 100°C were measured using capillary Cannon-Fenske viscometers per ASTM […]. Viscosity Index (the value, describing the rate of thinning with increasing temperature) was calculated per ASTM D2270.

A short description of data set [3]: Thin film test, oxidative stability (time to insoluble residues and to solidification). Conditions: 500 µm thick films at 120°C; for Vapor loss at solidification: at the duration of full film solidification.
From the text: as §1, §2
Therefore, thin films of commercial basestocks and α-ω dibasic esters were compared by exposing their thin films to 120°C as described by Stoncius, A. et al. in "Volatiles from Thin Film Degradation of Bio-based, Synthetic and Mineral Basestocks" published in Industrial Lubrication & Tribology, 2013, 65 (3), 209-215, Emerald Group Publishing Edition or by Brazinskiene, D. et al. in "Ester Basestock Vaporisation from Thin Oil Films" published in Lubrication Science, DOI: 10.1002/ls.1372, pp 1-17, 2017, Wiley Edition.
The thin-film method determines how resistant oil is against formation of insoluble residues during oxidation. Degradation durations until initial formation of solid residues and complete solidification directly relate to oxidative stability.

The nature of data set [4]: Pour point and cloud point, cooling regime of ASTM D97. Conditions: for Cloud point, °C: visual inspection during the same run; for low temperature fluidity: result in words. How it is done:
Pour points and cloud points were determined using the same thermal cooling regime, as instructed by ASTM D97. The sample sizes were 5 to 15 mL during the measurements.
Cloud points were determined during the same run by visual inspection of the sample appearance at low temperature. The samples were removed from the freezer every 3°C for visual inspection and, if cloudy, meniscus movement with inversion. The pour point resembled the last measurement, at which the meniscus boundary was still moving within 5 seconds of horizontal inversion. All samples were tested in duplicate.
In engine oils and hydraulic fluids, low temperature fluidity is primarily determined by pour points [ASTM D97]. Generally, pour points below -30°C are considered sufficient. Some polymer additives, e.g. "Pour Point Depressants" (PPD), are able to improve low temperature fluidity. […] Therefore, initially pour points and cloud points [ASTM D2500 "Standard Test Method for Cloud Point of Petroleum Products and Liquid Fuels"] of α-ω dibasic esters were evaluated and shown in Table 4.

Where “and” joins values, the source holds several entries; their conditions need not be identical. Equal values may be shown once. Where only a bound is given, the exact number is not on record here.

As for “1,9-di(2-ethylhexyl) nonanedioate [26S9, reference compound]”, in data set [1], the “Volatile emissions, 16 hrs” value was found to be 2.65 % w/w and the “Volatile emissions, 36 hrs” value is 4.7 % w/w. Also, in data set [2], the “Viscosity Index” value is 111; the “Viscosity, mm^2/s at 40°C” value is 10.5 mm^2/s; the “Viscosity, mm^2/s at 100°C” value was 2.8 mm^2/s. Also, in data set [3], the Full solidification observed was determined as 553 h, the Initial residues observed turned out to be 367 h and the “Vapor loss at solidification” value was 92% w/w. Further, in data set [4], the “Pour point, °C” value is -57 °C and the “Cloud point, °C” value was -38 °C.

For the compound “1,18-di(1-methylheptyl) octadec-9-enedioate [17U18]”, in data set [1], the “Volatile emissions, 16 hrs” value is 0.87 % w/w and the “Volatile emissions, 36 hrs” value worked out at 7 % w/w. In data set [2], the “Viscosity Index” value is 205; the “Viscosity, mm^2/s at 40°C” value is on record as 21.2 mm^2/s; the “Viscosity, mm^2/s at 100°C” value was 5.35 mm^2/s. In addition, in data set [3], the Full solidification observed turned out to be 463 h, the Initial residues observed stood at 343 h and the “Vapor loss at solidification” value is on record as 63% w/w. Besides, in data set [4], the “Pour point, °C” value was -21 °C; the low temperature fluidity entry is listed as “much poorer low temperature fluidity”; the “Cloud point, °C” value was -18 °C.

As for “1,18-di(2-butyloctyl) octadec-9-enedioate [48U18]”, in data set [1], the “Volatile emissions, 16 hrs” value came out at 1.7 % w/w and the “Volatile emissions, 36 hrs” value is reported as 9.8 % w/w. Also, in data set [2], the “Viscosity Index” value is 163; the “Viscosity, mm^2/s at 40°C” value is given as 36.09 mm^2/s; the “Viscosity, mm^2/s at 100°C” value was 7.09 mm^2/s. Further, in data set [3], the Full solidification observed was 320 h, the Initial residues observed was determined as 248 h and the “Vapor loss at solidification” value was 47% w/w. For the same compound, in data set [4], the “Pour point, °C” value was -54 °C and the “Cloud point, °C” value was -48 °C.

Take “1,18-di(2-propylheptyl) octadec-9-enedioate [37U18]”: in data set [1], the “Volatile emissions, 16 hrs” value is 3.5 % w/w and the “Volatile emissions, 36 hrs” value came out at 10.6 % w/w. Moreover, in data set [2], the “Viscosity Index” value is reported as 174; the “Viscosity, mm^2/s at 40°C” value is 28.7 mm^2/s and 28.74 mm^2/s; the “Viscosity, mm^2/s at 100°C” value was 6.39 mm^2/s. In data set [3], the Full solidification observed was determined as 324 h, the Initial residues observed came to 248 h and the “Vapor loss at solidification” value amounted to 54% w/w. In addition, in data set [4], the “Pour point, °C” value was -51 °C and the “Cloud point, °C” value is -51 °C.

“1,18-di(3,3,5-trimethylhexyl) octadec-9-enedioate [9U18]”: in data set [1], the “Volatile emissions, 16 hrs” value is reported as 5 % w/w and the “Volatile emissions, 36 hrs” value is 13.9 % w/w. In data set [2], the “Viscosity Index” value is 202; the “Viscosity, mm^2/s at 40°C” value is on record as 28.8 mm^2/s; the “Viscosity, mm^2/s at 100°C” value is recorded as 6.7 mm^2/s. Besides, in data set [3], the Full solidification observed stood at 367 h, the Initial residues observed turned out to be 344 h and the “Vapor loss at solidification” value came to 71% w/w. In data set [4], the “Pour point, °C” value is -33 °C and the “Cloud point, °C” value was -33 °C.

With “1,18-di(3-methylbutyl) octadec-9-enedioate [5U18]”, in data set [1], the “Volatile emissions, 16 hrs” value is given as 12.6 % w/w and the “Volatile emissions, 36 hrs” value is 23.7 % w/w. For the same compound, in data set [2], the “Viscosity Index” value is reported as 196; the “Viscosity, mm^2/s at 40°C” value is on record as 12.93 mm^2/s; the “Viscosity, mm^2/s at 100°C” value is on record as 3.73 mm^2/s. Also, in data set [3], the Full solidification observed was found to be 225 h, the Initial residues observed stood at 152 h and the “Vapor loss at solidification” value was found to be 66% w/w. Besides, in data set [4], the “Pour point, °C” value was -24 °C and the “Cloud point, °C” value is -24 °C.

With “1,18-dimethyl octadec-9-enedioate [1U18]”, in data set [1], the “Volatile emissions, 16 hrs” value came out at 9.4 % w/w and the “Volatile emissions, 36 hrs” value was 25.6 % w/w. Moreover, in data set [2], the “Viscosity Index” value is 204; the “Viscosity, mm^2/s at 40°C” value was 8.68 mm^2/s; the “Viscosity, mm^2/s at 100°C” value is reported as 2.85 mm^2/s. In data set [3], this compound returned a Full solidification observed of 344 h and an Initial residues observed of 248 h. Besides, in data set [4], the “Pour point, °C” value is “> +15 °C”; the low temperature fluidity result was “much poorer low temperature fluidity”; the “Cloud point, °C” value is “> +15 °C”.

Turning to “1-(3,7,11,15-tetra methyl-2-hexadecenyl) - 18-(2-ethylhexyl) octadec-9-enedioate [2026U18]”, in data set [1], the “Volatile emissions, 16 hrs” value was 6.7 % w/w and the “Volatile emissions, 36 hrs” value came out at 13.4 % w/w. For the same compound, in data set [2], the “Viscosity Index” value is recorded as 175; the “Viscosity, mm^2/s at 40°C” value is reported as 42.54 mm^2/s; the “Viscosity, mm^2/s at 100°C” value is recorded as 8.3 mm^2/s. Moreover, in data set [3], the Full solidification observed stood at 176 h, the Initial residues observed amounted to 152 h and the “Vapor loss at solidification” value is 39% w/w. Further, in data set [4], the “Pour point, °C” value was -66 °C and the “Cloud point, °C” value is -63 °C.

In the case of `CCCCCCC(C)OC(=O)CCCCCCCCCCCCCCCCC(=O)OC(C)CCCCCC` (stereo not shown) [17S18, 1,18-di(1-methylheptyl) octadecanedioate, reference compound], in data set [2], the “Viscosity Index” value was 180; the “Viscosity, mm^2/s at 40°C” value is recorded as 22.7 mm^2/s; the “Viscosity, mm^2/s at 100°C” value was 5.31 mm^2/s. Further, in data set [4], the “Pour point, °C” value was “+9 °C”; the low temperature fluidity entry is “very problematic low temperature fluidity”; the “Cloud point, °C” value was “+9 °C”.

For the compound `CCCCC(CC)COC(=O)CCCCCCCCCCCCCCCCC(=O)OCC(CC)CCCC` (stereo not shown) [26S18, 1,18-di(2-ethylhexyl) octadecanedioate, reference compound], in data set [2], the “Viscosity Index” value is recorded as 194; the “Viscosity, mm^2/s at 40°C” value was 23.9 mm^2/s; the “Viscosity, mm^2/s at 100°C” value is given as 5.71 mm^2/s. Also, in data set [4], the “Pour point, °C” value was -9 °C; the low temperature fluidity entry is listed as “very problematic low temperature fluidity”; the “Cloud point, °C” value is -9 °C.

On to `CCCCCCC(CCCC)COC(=O)CCCCCCCC=CCCCCCCCC(=O)OCC(CC)CCCC` (stereo not shown) [4826U18, 1-(2-butyloctyl)-18-(2-ethylhexyl)octadec-9-enedioate], for which, in data set [1], the “Volatile emissions, 16 hrs” value came to 3.8 % w/w and the “Volatile emissions, 36 hrs” value came out at 10.1 % w/w. In data set [2], the “Viscosity Index” value was 205; the “Viscosity, mm^2/s at 40°C” value is listed as 28.97 mm^2/s; the “Viscosity, mm^2/s at 100°C” value was 6.78 mm^2/s. Besides, in data set [3], the Full solidification observed was 325 h, the Initial residues observed was determined as 248 h and the “Vapor loss at solidification” value came to 57% w/w. In data set [4], the “Pour point, °C” value is -51 °C and the “Cloud point, °C” value was -51 °C.
